# Starred links: 1 amine or outer side, 2 acyl side, 3 side chain; linkers in the order of their positions; H or OH if unused. Positions of bridges follow the written chain, without caps; N, C: chain ends. Non-standard residues stand in square brackets, D forms with d. Residues, ends and D or L forms follow the SMILES beside them. ξ: configuration not given here. *: point of attachment. X2 = CC(C)C[C@@H](CC(=O)[C@H](CCN)N[*:1])C(=O)[*:2]; Thr(3ξ) = CC(O)[C@H](N)C(=O)O; dNle = CCCC[C@@H](N)C(=O)O; Octanoyl = CCCCCCCC(=O)*; Dab = NCC[C@H](N)C(=O)O; Dap = NC[C@H](N)C(=O)O
# Experiments:
# [1] = system: Enterobacter cloacae
# How it was run: (§1)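 Minimum inhibitory concentrations come from CLSI-standard broth microdilution in cation-adjusted Mueller-Hinton broth.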
# [2] = system: Klebsiella pneumoniae
# How it was run: as §1
# [3] = system: Pseudomonas aeruginosa
# How it was run: as §1
# [4] = system: Acinetobacter baumannii
# How it was run: as §1
# [5] = system: P. aeruginosa ATCC 27853; test: In vivo efficacy in mouse blood infection model (neutropenic Swiss mice); settings: compound, free base 4 mg/kg intravenously 2 h after inoculation, blood at 4 h
# How it was run: (§2)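 Neutropenic Swiss mice (cyclophosphamide 150 mg/kg day −4, 100 mg/kg day −1, i.p.) infected i.v. with early log-phase bacteria; 4 mg/kg free base i.v. given 2 h post-inoculation. Blood CFU by cardiac puncture 4 h post-dose; Δlog10 CFU/mL treated versus saline controls.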
# [6] = system: A. baumannii ATCC 19606; test: as above; settings: compound, free base 4 mg/kg intravenously 2 h after inoculation, blood at 4 h
# How it was run: as §2
# [7] = system: K. pneumoniae FADDI-KP032; test: as above; settings: compound, free base 4 mg/kg intravenously 2 h after inoculation, blood at 4 h
# How it was run: as §2
Compound,"Minimum inhibitory concentration, Ec FADDI-EC001 [1] [µg/mL]","Minimum inhibitory concentration, Ec FADDI-EC003 [1] [µg/mL]","Minimum inhibitory concentration, Ec FADDI-EC006 [1] [µg/mL]",MIC [2] [µg/mL],MIC [3] [µg/mL],"Minimum inhibitory concentration, Pa ATCC 27853 [3] [µg/mL]","Minimum inhibitory concentration, Pa FADDI-PA022 [3] [µg/mL]","Minimum inhibitory concentration, Pa FADDI-PA025 [3] [µg/mL]",MIC [4] [µg/mL],"Minimum inhibitory concentration, Ab A ATCC 17978 [4] [µg/mL]","Minimum inhibitory concentration, Ab ATCC 19606 [4] [µg/mL]","Minimum inhibitory concentration, Ab FADDI-AB034 [4] [µg/mL]",Δ log (Treated-Control at 4 h) [5] [log10 CFU/mL],Δ log (Treated-Control at 4 h) [6] [log10 CFU/mL],Δ log (Treated-Control at 4 h) [7] [log10 CFU/mL]
CCCCCCCC(=O)N[C@@H](CCN)C(=O)N[C@H](C(=O)N[C@H](CO)C(=O)N[C@H]1CCNC(=O)[C@H](C(C)O)NC(=O)[C@H](CCN)NC(=O)[C@H](CCN)NC(=O)[C@H](C(C)O)NC(=O)[C@@H](CC(C)C)CC(=O)[C@H](CCN)NC1=O)C(C)O (some centres unmarked) [Compound 1] (Octanoyl-[Dab][Thr(3ξ)][dS][Dab][X2][Thr(3ξ)][Dab][Dab][Thr(3ξ)]; lactam 4-C),<0.125,<0.125,0.5,0.5,4,4,4,>32,<0.125,0.25,1,0.25,0.40,−2.13,−3.49
CCCCCCCC(=O)N[C@@H](CCN)C(=O)N[C@H](C(=O)N[C@H](CO)C(=O)N[C@H]1CCNC(=O)[C@H]([C@@H](C)O)NC(=O)[C@H](CCN)NC(=O)[C@H](CCN)NC(=O)[C@H]([C@@H](C)O)NC(=O)[C@@H](CCCC)NC(=O)[C@H](CCN)NC1=O)[C@@H](C)O [Compound 7] (Octanoyl-[Dab]T[dS][Dab][Dab][dNle]T[Dab][Dab]T; lactam 4-C),0.25,0.25,0.5,<0.125,–,2,4,>32,0.25,<0.125,0.25,<0.125,−0.61,−2.87,−3.39
CCCCCCCC(=O)N[C@@H](CCN)C(=O)N[C@H](C(=O)N[C@@H](CCN)C(=O)N[C@H]1CCNC(=O)[C@H]([C@@H](C)O)NC(=O)[C@H](CCN)NC(=O)[C@H](CCN)NC(=O)[C@H]([C@@H](C)O)NC(=O)[C@@H](CC(C)C)NC(=O)[C@H](CCN)NC1=O)[C@@H](C)O [Compound 20] (Octanoyl-[Dab]T[Dab][Dab][Dab][dL]T[Dab][Dab]T; lactam 4-C),<0.125,0.5,<0.125,0.25,0.5,0.5,0.5,>32,4,4,4,2,−2.13,−1.86,−3.50
CCCCCCCC(=O)N[C@@H](CCN)C(=O)N[C@H](C(=O)N[C@@H](CCN)C(=O)N[C@H]1CCNC(=O)[C@H]([C@@H](C)O)NC(=O)[C@H](CCN)NC(=O)[C@H](CCN)NC(=O)[C@H]([C@@H](C)O)NC(=O)[C@@H](Cc2ccccc2)NC(=O)[C@H](CCN)NC1=O)[C@@H](C)O [Compound 22] (Octanoyl-[Dab]T[Dab][Dab][Dab][dF]T[Dab][Dab]T; lactam 4-C),<0.125,<0.125,0.25,0.5,1,1,1,16,1,1,1,0.5,−3.10,−1.50,−3.11
CCCCCCCC(=O)N[C@@H](CCN)C(=O)N[C@H](C(=O)N[C@@H](CCN)C(=O)N[C@H]1CCNC(=O)[C@H]([C@@H](C)O)NC(=O)[C@H](CCN)NC(=O)[C@H](CCN)NC(=O)[C@H](C(C)C)NC(=O)[C@@H](CC(C)C)NC(=O)[C@H](CCN)NC1=O)[C@@H](C)O [Compound 23] (Octanoyl-[Dab]T[Dab][Dab][Dab][dL]V[Dab][Dab]T; lactam 4-C),<0.125,<0.125,0.25,<0.125,1,1,1,4,0.5,0.5,0.5,0.25,−2.48,−2.82,−3.88
CCCCCCCC(=O)N[C@@H](CCN)C(=O)N[C@H](C(=O)N[C@@H](CCN)C(=O)N[C@H]1CCNC(=O)[C@H]([C@@H](C)O)NC(=O)[C@H](CCN)NC(=O)[C@H](CCN)NC(=O)[C@H]([C@@H](C)O)NC(=O)[C@@H](CCCC)NC(=O)[C@H](CCN)NC1=O)[C@@H](C)O [Compound 24] (Octanoyl-[Dab]T[Dab][Dab][Dab][dNle]T[Dab][Dab]T; lactam 4-C),<0.125,<0.125,0.25,<0.125,0.5,0.5,0.5,16,1,1,1,1,−2.31,−2.16,−3.21
CCCCCCCC(=O)N[C@@H](CCN)C(=O)N[C@H](C(=O)N[C@@H](CN)C(=O)N[C@H]1CCNC(=O)[C@H]([C@@H](C)O)NC(=O)[C@H](CCN)NC(=O)[C@H](CCN)NC(=O)[C@H]([C@@H](C)O)NC(=O)[C@@H](CC(C)C)NC(=O)[C@H](CCN)NC1=O)[C@@H](C)O [Compound 33] (Octanoyl-[Dab]T[Dap][Dab][Dab][dL]T[Dab][Dab]T; lactam 4-C),<0.125,<0.125,1,<0.125,0.5,0.5,0.5,8,0.5,0.25,0.5,0.25,−1.55,−1.40,−2.80

# Source: patent publication USRE48335E1, “Polymyxin derivatives as antimicrobial compounds” (priority 2014, dated 2020)
